Data reported in paper PMC11472310, “Distinctive Immune Signatures Driven by Structural Alterations in Desmuramylpeptide NOD2 Agonists” (Journal of Medicinal Chemistry, 2024).

What was measured:
hNOD2 = molecular target: T1, hNOD2 (Homo sapiens, UniProt Q9HC29); test: HEK-Blue NOD2 cell line reporter assay (NF-κB-inducible SEAP); type: cell-based; details: HEK-Blue NOD2 cells, 18 h, NF-κB transcriptional activity (SEAP); read-out: EC50 (nM), NOD2 agonistic activity
T1 construct: host or cells: HEK-Blue NOD2 cells (HEK293)
Protocol: To assess the NOD2 agonistic potential of the synthesized desmuramylpeptides at a cellular level, we employed the HEK-Blue NOD2 cell line reporter assay, a validated and commercially available method. All synthesized compounds were evaluated for their dose-dependent activities to establish their EC50 values.
The HEK-Blue NOD1 and NOD2 cell line reporter assay was generated from HEK293 cells through cotransfection of the hNOD1 or hNOD2 gene, respectively, along with an NF-κB-inducible secreted embryonic alkaline phosphatase (SEAP) reporter gene. Upon activation of NOD1 or NOD2, NF-κB triggers the production of SEAP, which can be quantitatively measured colorimetrically. […] After 18 h of incubation at 37 °C with 5% CO2, SEAP activity was measured spectrophotometrically by absorbance at 630 nm (BioTek Synergy microplate reader; Winooski, VT, USA). EC50 values were determined using Prism software (version 9; GraphPad Software, CA, USA). Each experiment was conducted in duplicate and repeated in at least two independent biological replicates.

[1] = test system: CD4+ T cells cocultured with BMDCs; test: BMDC antigen presentation to ovalbumin-specific CD4+ T cells (OT II); type: cell-based, C57BL/6 mouse; details: BMDCs pretreated 10 μM + ovalbumin 50 μg/mL 18 h, coculture 72 h; OVA-treated cells 63.8%
Protocol: (§1) For this study, we narrowed down the selection of suitable desmuramylpeptides even further. In order to assess the adjuvant potential of selected desmuramylpeptides with regard to their effect on DC-mediated activation of CD4^+ and CD8^+ T cells, we conducted an ex vivo antigen-presentation assay utilizing C57BL/6 mouse bone marrow-derived DCs (BMDCs). Upon stimulation with desmuramylpeptides at 10 μM, in conjunction with ovalbumin soluble protein (50 μg/mL), BMDCs were cocultured with carboxyfluorescein succinimidyl ester (CFSE)-labeled naïve ovalbumin-specific CD4^+ or CD8^+ T cells, which were isolated from splenocytes of OT II and OT I transgenic mice, respectively. […] Additionally, we investigated how the priming of T cells elicited by the tested compounds impacted the cytokine profiles secreted in BMDC/T-cell cocultures.
(§2) CD4^+ and CD8^+ T cells were isolated from splenocytes of OT II and OT I transgenic mice using CD4^+ and CD8^+ T cell isolation kits (Miltenyi Biotec, Germany) following the manufacturer’s instructions. The purified T cells were labeled with CFSE (Invitrogen, Carlsbad, CA, USA) and subsequently washed. Next, 5 × 10^4 T cells were combined with 1 × 10^4 BMDCs/well (pretreated with desmuramylpeptides at 10 μM and 50 μg/mL ovalbumin [Invivogen, San Diego, CA, USA] for 18 h and then washed). Following a 72-h incubation period at 37 °C with 5% CO2, supernatants were harvested and stored at −80 °C for cytokine analysis. The cells were then stained with Fixable viability dye eFluor 780 (eBioscience, Thermo Fisher Scientific, MA, USA), anti-Thy1.2-PE-Cy7 antibodies (Biolegend, San Diego, CA, USA), anti-CD8-eFluor450 antibodies (eBioscience), anti-CD4-eFluor450 antibodies (eBioscience), and anti-CD25-APC antibodies (Biolegend) before analysis using a Beckman Coulter Cytoflex S flow cytometer (CA, USA) and FlowJo software (Tree Star, Inc., Ashland, OR, USA). Live Thy1.2+/CD4+ and Thy1.2+/CD8+ cells were assessed for CFSE dilution and CD25 expression. Each experiment was performed in duplicate and repeated in two independent biological replicates. Statistical significance was determined using paired t tests.

K562 cancer cells = test: PBMC cytotoxicity against K562 cancer cells (flow cytometry); type: cell-based; details: for cytotoxicity of PBMCs against K562 cells, cotreatment with LPS (relative to negative control) / Cytotoxicity (ratio to control), + LPS: 10 μM + LPS 1 μg/mL; for cytotoxicity of PBMCs against K562 cells, cotreatment with LPS (relative to negative control) / enhancement of cytotoxicity of PBMCs against K562 cells (relative to negative control): 18 h, then 4 h coincubation; for cytotoxicity of PBMCs against K562 cells, cotreatment with LPS (relative to negative control): 40:1; for Cytotoxicity (ratio to control), + LPS / Cytotoxicity (ratio to control): Table S2; for Cytotoxicity (ratio to control) / enhancement of cytotoxicity of PBMCs against K562 cells (relative to negative control): alone: compounds 10 μM, LPS 1 μg/mL, IL-2 200 U/mL; for enhancement of cytotoxicity of PBMCs against K562 cells (relative to negative control): effector:target 40:1
Protocol: In this study, we investigated the potential of desmuramylpeptides, both alone and in combination with LPS, to enhance the cytotoxic activity of PBMCs against cancer cells employing a flow-cytometry-based cytotoxicity assay based on coincubation of preactivated PBMCs with fluorescently labeled K562 cancer cells.[82] Among the diverse subpopulations within PBMCs, natural killer (NK) cells play a pivotal role in detecting and eliminating cancer cells. NOD2-mediated NK cell activity against cancer cells arises from both direct NOD2 agonist elicited cytolytic activity of NK cells[83] and indirect activation through cytokine release by other NOD2-responsive cells, such as monocytes, which comprise approximately 10% of PBMCs; such interactions potentially reinforce the immune response.[84] […] To that end, we utilized the entire PBMC population as effector cells rather than isolated NK cells, to mimic conditions more closely resembling the in vivo environment while K562 chronic myelogenous leukemia cells were used as the target cells in a 40:1 effector to target cell ratio.[87]
(§3) The PBMC cytotoxicity assays utilizing K562 cells were conducted following previously established methods, with some adjustments.[82] […] Meanwhile, K562 cells were stained with CFSE (Invitrogen, Carlsbad, CA, USA), washed twice with complete medium, and then added (1 × 10^4 cells per well) to the pretreated PBMCs to achieve a final effector cell to target tumor cell ratio of 40:1. Following a 4-h coincubation period at 37 °C with 5% CO2, cells were stained with Sytox blue dead cell stain (Invitrogen) and analyzed using an Attune NxT flow cytometer (Thermo Fisher Scientific, Waltham, MA, USA) along with FlowJo software (Tree Star, Inc., Ashland, OR, USA). Cells positive for both CFSE and Sytox blue were designated as dead K562 cells. PBMCs alone and CFSE-labeled cancer cells alone were also exposed to the compounds at equivalent concentrations and stained with Sytox blue to assess any direct cytotoxic effects of the compounds on PBMCs and cancer cells separately. Each experiment was conducted in duplicate and repeated in three independent biological replicates. Statistical analysis was performed using one-way ANOVA followed by Dunnett’s multiple comparisons test.

BMDC/T-cell cocultures = test: T cell cytokine release in BMDC/T-cell cocultures; type: cell-based, C57BL/6 mouse; details: 10 μM, 72 h coculture
Protocol: as §1
Following 72 h of coincubation with BMDCs (pretreated with desmuramylpeptides [10 μM] and washed), supernatants from CD4^+ and CD8^+ T cells were harvested as previously described. […] Standard curves were constructed using recombinant cytokines provided in the kit. Data analysis was conducted using FlowJo (Tree Star, Inc., Ashland, OR, USA) and Prism (GraphPad, San Diego, CA, USA) software. Each experiment was performed in duplicate and replicated in two independent biological runs.

human PBMCs = test: Cytokine release from peripheral blood mononuclear cells (LEGENDplex panel); type: cell-based; details: 18 h; for production of proinflammatory cytokines and chemokines including IL-6, IL-8 and MCP-1: 2 μM alone (no LPS)
From the text: The immunomodulatory effects of the selected desmuramylpeptides were examined in human primary peripheral blood mononuclear cells (PBMCs). This diverse mixture of immune cells provided a platform to investigate the effects of these NOD2 agonists within a physiologically relevant environment, encompassing other NOD2-interacting and downstream signaling proteins. […] Given that NOD2 activation often modulates the Toll-like receptor (TLR)-induced cytokine responses, we investigated the impact of combining desmuramylpeptides with lipopolysaccharide (LPS), a well-known TLR4 agonist, on cytokine secretion.[76]−[78]
The elicited cytokine profiles thus broadly reflect the structure–activity relationships obtained in the reporter gene assays.
Peripheral blood mononuclear cells were plated at a density of 1 × 10^6 cells/mL in 48-well plates containing 500 μL of growth medium. Cells were then treated with the compounds (2 μM) or the corresponding vehicle (0.1% DMSO), both in the absence and presence of LPS (10 ng/mL). Following an 18 h incubation period at 37 °C with 5% CO2, cell-free supernatants were collected and stored at −80 °C until analysis. […] Standard curves were constructed using recombinant cytokines provided in the kit. Data analysis was performed using Biolegend software Qognit and Prism (GraphPad, San Diego, CA, USA) software. The experiments were independently replicated four times. Statistical significance was determined using two-way analysis of variance (ANOVA) followed by Tukey’s multiple comparisons test.

PBMCs = test: Direct cytotoxic effect of compounds on PBMCs (Sytox blue); type: cell-based
Protocol: Additionally, PBMCs and cancer cells alone were treated with desmuramylpeptides to assess any direct cytotoxic effects on these cells.
as §3

[2] = test system: human blood monocyte subsets; test: Monocyte conversion assay in PBMCs (CD14/CD16 flow cytometry); type: cell-based; details: 10 μM, 18 h, NT 19.5%
From the text: Engagement of NOD2 has been reported to increase the levels of an anti-inflammatory monocyte subset, denoted as patrolling monocytes (CD14^–, CD16^+2), thus exerting a counterintuitive role in inflammatory processes, while concomitantly increasing the levels of total blood monocytes (released from bone marrow).[18] […] This process involves a transition from the inflammatory monocytes, typified by CD14^+CD16^–, through an intermediate subset of CD14^+CD16^+ monocytes. […] To recapitulate this phenomenon, we modified the reported procedure and employed PBMCs in lieu of isolated monocytes. Identification of human blood monocyte subsets was achieved through flow cytometry, utilizing the expression of CD14 and CD16 markers as distinguishing criteria. […] Similar to what has been reported (e.g., inactivity of murabutide),[18] also in our case not all NOD2 agonists were equally endowed with the ability to generate patrolling monocytes.
The monocyte conversion assay was conducted following previously established methods, with some adjustments.[18] Peripheral blood mononuclear cells were plated at a density of 3 × 10^6 cells/mL in 24-well plates containing 700 μL of growth medium. Cells were then treated with MDP and desmuramylpeptides (10 μM) or the corresponding vehicle (0.1% DMSO). Following an incubation period at 37 °C with 5% CO2, cells were transferred to 1.5 mL tube using phosphate-buffered saline (PBS) and scraper. The cells were blocked with human TruStain Fcx (BioLegend) and stained using antihuman CD16 antibodies/Alexa Fluor 488 (BioLegend); antihuman CD14 antibodies/PE-Cy7 (BioLegend); antihuman HLA-DR antibodies/APC-Fire750 (BioLegend) and blocked with TrueStain Monocyte Blocker. A viability dye Helix NP Blue (BioLegend) was added to the previous panel to discriminate live cells. PBMC were analyzed using an Attune NxT flow cytometer (Thermo Fisher Scientific, Waltham, MA, USA) and the FlowJo software (Tree Star, Inc., Ashland, OR, USA). Initially, lymphocytes (CD14^–, CD16^–) and NK (CD16^–, HLA-DR^–) were eliminated, after which classical, intermediate and nonclassical monocytes were specifically identified by selective gating strategy as follows: CD14^+ CD16^– (classical), CD14^+ CD16^+ (intermediate) and CD14^– CD16^+ (nonclassical). Each experiment was conducted in duplicate and repeated in three independent biological replicates.

[3] = test system: CD8+ T cells cocultured with BMDCs; test: BMDC antigen cross-presentation to ovalbumin-specific CD8+ T cells (OT I); type: cell-based, C57BL/6 mouse; details: BMDCs pretreated 10 μM + ovalbumin 50 μg/mL 18 h, coculture 72 h; OVA-treated cells 23.3%
Protocol: as §1
as §2, with “Each experiment was performed in duplicate and repeated in two independent biological replicates.” left out

[4] = Table S2, alone: compounds 10 μM, LPS 1 μg/mL, IL-2 200 U/mL

T1 sequence (Q9HC29 whole entry): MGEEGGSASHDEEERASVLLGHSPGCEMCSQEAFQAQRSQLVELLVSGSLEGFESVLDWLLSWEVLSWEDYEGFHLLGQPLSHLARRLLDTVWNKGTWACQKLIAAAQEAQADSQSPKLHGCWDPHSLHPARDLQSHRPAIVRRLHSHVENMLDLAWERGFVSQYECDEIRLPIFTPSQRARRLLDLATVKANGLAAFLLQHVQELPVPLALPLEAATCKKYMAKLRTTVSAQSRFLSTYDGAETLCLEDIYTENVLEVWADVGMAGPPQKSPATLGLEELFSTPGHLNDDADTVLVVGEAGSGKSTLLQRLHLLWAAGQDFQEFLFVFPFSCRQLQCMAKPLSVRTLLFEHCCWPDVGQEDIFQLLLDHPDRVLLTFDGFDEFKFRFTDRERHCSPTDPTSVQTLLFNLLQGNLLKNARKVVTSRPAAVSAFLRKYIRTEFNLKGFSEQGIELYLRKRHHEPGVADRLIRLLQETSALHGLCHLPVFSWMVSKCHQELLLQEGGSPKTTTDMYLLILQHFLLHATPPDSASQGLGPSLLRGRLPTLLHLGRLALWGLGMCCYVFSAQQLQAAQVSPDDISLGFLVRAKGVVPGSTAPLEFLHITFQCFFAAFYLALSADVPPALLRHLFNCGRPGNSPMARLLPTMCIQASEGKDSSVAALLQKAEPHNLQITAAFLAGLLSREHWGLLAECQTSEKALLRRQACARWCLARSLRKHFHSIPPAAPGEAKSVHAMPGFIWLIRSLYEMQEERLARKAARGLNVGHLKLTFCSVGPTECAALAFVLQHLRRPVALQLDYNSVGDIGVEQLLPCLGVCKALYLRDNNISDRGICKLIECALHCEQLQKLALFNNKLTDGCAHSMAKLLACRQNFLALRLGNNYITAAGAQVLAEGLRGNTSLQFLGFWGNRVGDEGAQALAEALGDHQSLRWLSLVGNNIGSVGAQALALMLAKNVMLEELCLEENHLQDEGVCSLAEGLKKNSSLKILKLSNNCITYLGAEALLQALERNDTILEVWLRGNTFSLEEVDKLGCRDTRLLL

Row | Molecule | EC50 (hNOD2) | fraction of activated and proliferating CD4+ T-cells (CD25+, CFSE low) [1] | cytotoxicity of PBMCs against K562 cells, cotreatment with LPS (relative to negative control) (K562 cancer cells) | Cytotoxicity (ratio to control), + LPS (K562 cancer cells) | Cytotoxicity (ratio to control) (K562 cancer cells) | enhancement of cytotoxicity of PBMCs against K562 cells (relative to negative control) (K562 cancer cells) | levels of IL-6 and TNF-α secreted by CD4+ T cells (BMDC/T-cell cocultures) | amounts of IL-1β, IL-6, IL-10, TNF-α and IFN-γ compared to the MDP/LPS combination (human PBMCs; 2 μM + LPS 10 ng/mL) | levels of LPS-induced IL-10 (human PBMCs; 2 μM + LPS 10 ng/mL) | levels of secreted MCP-1 compared to the MDP/LPS combination (human PBMCs; 2 μM + LPS 10 ng/mL) | production of proinflammatory cytokines and chemokines including IL-6, IL-8 and MCP-1 (human PBMCs) | Percent of dead PBMCs, + LPS (PBMCs; Table S2, 10 μM + LPS 1 μg/mL) | Percent of dead PBMCs (PBMCs; [4]) | levels of nonclassical monocytes [2] | Percent of dead PBMCs (PBMCs; human, 18 h, 10 μM) | Percent of dead PBMCs, + LPS (PBMCs; human, 18 h, 10 μM) | fraction of activated and proliferating CD8+ T-cells (CD25+, CFSE low) [3]
1 | CCOC(=O)[C@@H](CCC(=O)NC12C[C@H]3C[C@@H](C1)C[C@@H](C2)C3)NC(=O)[C@@H](NC(=O)CNC(=O)/C=C/c1ccc(O)c(OC)c1)C(C)C [Compound 28, Ethyl N^5-((3S,5S,7S)-Adamantan-1-yl)-N^2-((E)-3-(4-hydroxy-3-methoxyphenyl)acryloyl)glycyl-L-valyl-D-glutaminate] | > 10000 nM | 67.0% | 2.19 fold | 2.19 ± 0.07 | 0.91 ± 0.02 | devoid of the capacity to induce cytotoxicity | slightly increased | lesser amounts | opposite | on par | smaller increases | 10.44% ± 0.63% | 0.99% ± 0.21% |  |  |  | 
2 | CC(=O)N[C@H]1C(O)O[C@H](CO)[C@@H](O)[C@@H]1O[C@H](C)C(=O)N[C@@H](C)C(=O)N[C@H](CCC(=O)O)C(N)=O (mixture of isomers) [MDP, muramyl dipeptide, reference compound] | 205 ± 64 nM |  | 2.71 fold | 2.71 ± 0.16 | 1.17 ± 0.07 | no activity |  |  | amplified |  | minor increases |  |  | 31.5% | 1.11% ± 0.15% | 7.95% ± 0.95% | 
3 | lipopolysaccharide [LPS, reference compound] |  | 80.4% |  |  | 1.8 ± 0.08 | 1.80 fold |  |  |  |  |  |  | 4.16% ± 0.47 |  |  |  | 55.6%
